{"source": "paper PMC11920646", "about": "(Frontiers in Pharmacology, 2025)", "key": {"[1]": {"tested_on": "IFN-γ release in human whole blood", "design": "method as in Hu et al., 2011", "details": "at concentrations each of 100–1000 nM ref Hu et al., 2011; cited from earlier work"}, "human MR": {"biological_target": "T1, human MR (Homo sapiens, UniProt P08235)", "T1 construct": "host or cells: CHO (DSMZ ACC-110), CHO-Gal4/MR", "T1 sequence (P08235 726-964 limits assumed)": "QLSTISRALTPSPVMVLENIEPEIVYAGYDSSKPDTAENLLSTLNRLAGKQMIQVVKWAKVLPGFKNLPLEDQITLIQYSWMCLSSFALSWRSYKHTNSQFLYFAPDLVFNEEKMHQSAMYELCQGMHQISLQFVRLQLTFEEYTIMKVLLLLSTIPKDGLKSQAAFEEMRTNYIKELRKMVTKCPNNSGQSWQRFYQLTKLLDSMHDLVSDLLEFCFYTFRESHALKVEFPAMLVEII", "test": "MR reporter gene (transactivation) assay, CHO-Gal4/MR", "assay_type": "cell-based", "description": "To create the CHO-Gal4/GR, CHO-Gal4/PR, and CHO-Gal4/MR reporter cell lines, first CHO cells were stably transfected with a GAL4-UAS-luciferase reporter construct. Then, the LBD of the GR, PR, or MR (GR Gene ID: 2908, PR Gene ID: 5241, MR Gene ID: 4306, respectively) was cloned into pIRES2-EGFP-GAL4 containing the DBD of GAL4 from pFA-AT2, and then co-transfected into the luciferase-reporter construct-containing CHO cells. These reporter cell lines express the respective nuclear hormone receptor LBD-DBD fusion proteins that control luciferase expression of a GAL4-upstream activation sequence (UAS)-luciferase reporter construct, allowing for detection of ligand- or compound-induced transactivation at the GR, PR, or MR by measuring luciferase activity.\nCryo-preserved CHO-Gal4/GR, CHO-Gal4/PR, and CHO-Gal4/MR cells were plated in medium at 7,500 cells/well in 384-well assay plates (25 μL/well), and incubated for 24 h. […] Following a 4-h incubation, cells were lysed and luminescence measured using the EMCCD camera FLIPR®Tetra (Molecular Devices, Silicon Valley, CA, United States).\nTransactivation (i.e., gene activation) was expressed as a percentage of the reference agonist activity (Supplementary Material), using Genedata Screener® v15.0.5 software (Basel, Switzerland).\nTransactivation was calculated according to this equation: […]"}, "[2]": {"tested_on": "SCW-induced ankle inflammation in female Lewis rats", "test": "Rat streptococcal cell wall (SCW) model of joint inflammation", "assay_type": "in vivo", "method": "Female Lewis rats (150–200 g, Charles River, United Kingdom) were used for the model of joint inflammation (see Supplementary Material for animal care), with in vivo efficacy assays conducted at the Saretius Ltd., Science and Technology Centre (Reading, United Kingdom). Monoarticular joint inflammation was induced on Day −21 by intra-articular injection of 10 μg of streptococcal cell wall (SCW) extract (Lee Laboratories, BD Scientific, Franklin Lakes, NJ, United States) into the left hind ankle joint. […] Treatments, including control, were administered orally once daily on Days −1 to 6 of the study. Additionally, on Day 0, each rat received an intravenous (IV) dose of 100 μg SCW extract 2 h after oral dosing. IV injections were given after rats had spent up to 10 min in a 40°C hot box (Thermacage MK2, Datesand Ltd., Manchester, United Kingdom).\nRat ankle diameters were measured using digital calipers (Mitutoyo, United Kingdom, Model: CDS6CX), mechanical allodynia tested using von Frey hairs, and rats weighed, per the schedule in Supplementary Table S2. […] On Day 6, rats were euthanized by a schedule 1 method (carbon dioxide) and terminal blood samples collected by cardiac puncture. After centrifugation to obtain plasma supernatant (10,000 rpm, 3 min), plasma was stored at −20°C until analysis. […] Glucose test strips (Roche Accu-Check with Aviva blood glucose system meter) were used to measure blood glucose levels at the time blood was drawn. All data were analyzed with Statistica v11 software (StatSoft Inc., Tulsa, OK, United States), using the Kolmogorov-Smirnov test to assess normality of distribution (see Supplementary Material for further detail), and to determine total area under the concentration-time curve (AUC) using the trapezoidal method. […] The effect of each treatment on ankle inflammation was determined by the reduction in ipsilateral ankle AUC versus control.\nData that was not normally distributed were analyzed with Kruskal-Wallis analysis of variance (ANOVA) followed by Dunn’s multiple comparisons tests. Normally distributed data were analyzed with repeated measures ANOVAs as appropriate, one-way ANOVAs and Dunnett’s post hoc tests."}}}
{"smiles": "C[C@]12C=CC(=O)C=C1CC[C@@H]1[C@@H]2[C@@H](O)C[C@@]2(C)[C@H]1CC[C@]2(O)C(=O)CO", "note": "[Prednisolone]", "values": [{"measurement": "inhibition of IFN-γ release in human whole blood", "setting": "[1]", "value": "85–100%"}, {"measurement": "EC50", "setting": "human MR; 4-h incubation", "value": "11.8 ± 3.2", "unit": "nM"}, {"measurement": "MR transactivation, mean activation", "setting": "human MR; % of reference agonist fludrocortisone", "value": "66.4 ± 4.7", "unit": "%"}, {"measurement": "change in blood glucose AUC2.5–24h versus vehicle", "setting": "[2]; Day 5, GRM-01 any dose 0.01–1 mg/kg/day, prednisolone 30 mg/kg/day", "value": "statistically significant increase"}, {"measurement": "blood glucose at time points post dose versus vehicle", "setting": "[2]; Day 5, GRM-01 at 2.5 h, all doses except 0.03 mg/kg/day, not dose dependent, prednisolone 30 mg/kg/day at 2.5, 4 and 6 h", "value": "significantly higher blood glucose levels"}, {"measurement": "effect on plasma corticosterone levels vs vehicle", "setting": "[2]; Day 6, GRM-01 significant at 0.3 mg/kg/day (p < 0.01), prednisolone 30 mg/kg/day (p < 0.01)", "value": "reduced plasma corticosterone levels"}, {"measurement": "antinociceptive effect (ipsilateral paw withdrawal threshold vs vehicle)", "setting": "[2]; GRM-01 0.1, 0.3, 1 mg/kg/day, prednisolone 30 mg/kg/day", "value": "demonstrated an antinociceptive effect"}, {"measurement": "ED50", "setting": "[2]; rat SCW model, separate and independent study, doses 0.003–30 mg/kg, read-out: ED50, change in AUC of ankle diameter", "value": 2.49, "unit": "mg/kg"}]}
